In patent US20260008811A1, “BIOACTIVE PEPTIDES AND COMPOSITIONS COMPRISING THEM” (ESPIKEM S.R.L., priority 2019, published 2026):
Non-standard residues stand in square brackets, D forms with d.

What was measured:
extracellular collagen = conditions: fibroblasts obtained from subjects of various ages; cited from earlier work
Type I procollagen = test: Western blot of type I procollagen / soluble type I collagen in fibroblast cultures after 72 hours of treatment; format: cell-based, human; conditions: fibroblasts, peptide 20 mM, no FBS, compared with TGF-β1, SA1III, Peptide 1, Peptide 2 (FIG. 1)
Description: Neonatal human dermal fibroblasts (NHDF) have been obtained from Lonza. Cultures of adult dermal fibroblasts have been prepared from cutaneous skin biopsies of healthy donors having different ages, as described in Pani et al. J. Alzheimer's Dis. (2009) 18:829-41, C6 ([…]), C3 (person) and C12 (person). A written informed consent to use these dermal cells was obtained from all the donor subjects involved, according to the Guidelines indicated by the Ethics Committee of the Careggi University Hospital (Florence, Italy) and by the Helsinki Declaration of 1975, as reviewed in the 1983. All cell cultures have been subjected to a similar number of steps, from 6 to 9, at the beginning of the experiments, and were preserved in the modified Dulbecco Eagle culture medium (DMEM, Lonza) added with FBS 10% (Gibco), 100 units/ml of penicillin G, 0.05 mg/ml of streptomycin and glutamine 2 mM (PAN-Biotech GmbH), at 37° C. in a humidified incubator containing 5% of CO2.
The cells were seeded in 12-wells plates (30000 cells per well) and treated the day after with the peptide AAT11RI (20 mM). […]
All treatments have been carried out in the absence of FBS to avoid interferences in the electrophoretic migration. […] The protein content in the lysates was measured using the Bio-Rad DC protein assay kit. […]

Substance: SA1-III: C-terminal peptide fragment 409-418 of the serpin A1 molecule, positive control (MGKVVNPTQK)
- levels of extracellular collagen (extracellular collagen): increased levels of extracellular collagen

Substance: Ac-DAsn-DVal-DVal-DLys-NH2 (Ac-[dN][dV][dV][dK]-NH2) [AAT11RI]
- ability to increase the concentration of procollagen in vitro (Type I procollagen): surprisingly higher than all the other products tested
